Experimental data: patent US12480075B2, “Perfume delivery system” (FIRMENICH SA, priority 2019, dated 2025)

Experiment: Odor threshold concentration (Log T / Log ODT) by gas chromatograph sniff port with panelists
Parameters: species or system human
Details: common logarithm of odor threshold concentration of the ingredient
Description: “High impact perfume raw materials” should be understood as perfume raw materials having a Log T<−4. The odor threshold concentration of a chemical compound is determined in part by its shape, polarity, partial charges and molecular mass. For convenience, the threshold concentration is presented as the common logarithm of the threshold concentration, i.e., Log [Threshold] (“Log T”).
The odor threshold concentration of a perfuming compound is determined by using a gas chromatograph (“GC”). Specifically, the gas chromatograph is calibrated to determine the exact volume of the perfume oil ingredient injected by the syringe, the precise split ratio, and the hydrocarbon response using a hydrocarbon standard of known concentration and chain-length distribution. The air flow rate is accurately measured and, assuming the duration of a human inhalation to last 12 seconds, the sampled volume is calculated. […] To determine the threshold concentration, solutions are delivered to the sniff port at the back-calculated concentration. A panelist sniffs the GC effluent and identifies the retention time when odor is noticed. The average across all panelists determines the odor threshold concentration of the perfuming compound. The determination of odor threshold is described in more detail in C.
In the case of `C=CCCC(=O)C1=CCCC(C)(C)C1`, the “Log ODT” value is reported as less than −4.
For `CC12CCC(CC1)C(C)(C)O2`, the “Log ODT” value was greater than −4.
For `COc1nccnc1CCCC(C)C`, the “Log ODT” value was less than −4.
In the case of `CC1(C)CC=C(CCC=O)CC1`, the “Log ODT” value is reported as greater than −4.
In the case of `CC(=O)/C=C/C1=C(C)CCCC1(C)C`, the “Log ODT” value is reported as less than −4.
In the case of “1-OXA-12-CYCLOHEXADECEN-2-ONE (A) + 1-OXA-13-CYCLOHEXADECEN-2-ONE (B)”, the “Log ODT” value is reported as greater than −4.
In the case of “2-METHYLBUTYL SALICYLATE (A) + PENTYL SALICYLATE (B)”, the “Log ODT” value is reported as greater than −4.
With “3,5,6-TRIMETHYL-3-CYCLOHEXENE-1-CARBALDEHYDE (A) + 2,4,6-TRIMETHYL-3-CYCLOHEXENE-1 -CARBALDEHYDE (B)” the “Log ODT” value was greater than −4.
For “3,7-DIMETHYL-2,6-NONADIENENITRILE (A) + 3,7-DIMETHYL-3,6-NONADIENENITRILE (B)”, the “Log ODT” value was greater than −4.
With “3-(4-ETHYLPHENYL)-2,2-DIMETHYLPROPANAL (A) + 3-(2-ETHYLPHENYL)-2,2-DIMETHYLPROPANAL (B)” the “Log ODT” value was greater than −4.
For “10-UNDECENAL (A) + (9E)-9-UNDECENAL (B) + (9Z)-9-UNDECENAL (C)”, the “Log ODT” value was less than −4.
In the case of `C/C=C/C(=O)[C@@H]1[C@@H](C)C=CCC1(C)C` (racemic), the “Log ODT” value is reported as less than −4.
In the case of `CC(C)=CCCC(C)C=O` (racemic), the “Log ODT” value is reported as greater than −4.
In the case of `C=CC(C)CCCC(C)(C)O` (racemic), the “Log ODT” value is reported as greater than −4.
With `CC(C)CCCC(C)CCO` (racemic) the “Log ODT” value was greater than −4.
In the case of `CC(C)=CCCC(C)CC=O` (racemic), the “Log ODT” value is reported as greater than −4.
For `C=CC(C)(CCC=C(C)C)OC(C)=O` (racemic) [(+−)-1,5-DIMETHYL-1-VINYL-4-HEXENYL ACETATE], the “Log ODT” value was greater than −4.
In the case of `CC1=CCC(C(C)(C)S)CC1` (racemic) [(+−)-2-(4-METHYL-3-CYCLOHEXEN-1-YL)-2-PROPANETHIOL], the “Log ODT” value is reported as less than −4.
With `CCCCCCCCCC(C)C=O` (racemic) [(+−)-2-METHYLUNDECANAL] the “Log ODT” value was less than -4.
With `CC(C)c1cccc(C(C)CC=O)c1` (racemic) [(+−)-3-(3-ISOPROPYL-1-PHENYL)BUTANAL] the “Log ODT” value was less than −4.
For `CCCCCCCC1CCC(=O)O1` (racemic) [(+−)-5-HEPTYLDIHYDRO-2(3H)-FURANONE], the “Log ODT” value was less than −4.
For `CC/C=C(\C)C(O)CCCCC` (racemic) [(+−)-(E)-4-METHYL-3-DECEN-5-OL], the “Log ODT” value was greater than −4.
With `CCOC(=O)C(C)CC` (racemic) [(+−)-ETHYL 2-METHYLBUTANOATE] the “Log ODT” value was greater than −4.
For `CCCCC[C@H]1C(=O)CC[C@@H]1CC(=O)OC` (racemic) [METHYL 2-((1RS,2RS)-3-OXO-2-PENTYLCYCLOPENTYL)ACETATE], the “Log ODT” value was greater than −4.
For `CC1=CCC2C[C@@H]1C2(C)C` (single isomer, unassigned; (-)), the “Log ODT” value was greater than −4.
With `c1ccc(Oc2ccccc2)cc1` [1,1′-OXYDIBENZENE] the “Log ODT” value was greater than −4.
For `COc1ccc(C)cc1` [1-METHOXY-4-METHYLBENZENE], the “Log ODT” value was greater than −4.
With `COc1ccc2ccccc2c1` [2-METHOXYNAPHTHALENE] the “Log ODT” value was less than −4.
For `CC(=O)OCCc1ccccc1` [2-PHENYLETHYL ACETATE], the “Log ODT” value was greater than −4.
With `CC(=O)OCCC(C)CCC=C(C)C` (stereo not drawn) [3,7-DIMETHYL-6-OCTENYL ACETATE] the “Log ODT” value was greater than −4.
For `CC1=CC2CC(C=O)C1CC2C(C)C` (stereo not drawn) [8-ISOPROPYL-6-METHYL-BICYCLO[2.2.2]OCT-5-ENE-2-CARBALDEHYDE], the “Log ODT” value was less than −4.
In the case of `CC(=O)O[C@@H]1CC2CC[C@]1(C)C2(C)C` [(1R,2R)-1,7,7-TRIMETHYL-BICYCLO[2.2.1]HEPT-2-YL ACETATE], the “Log ODT” value is reported as greater than −4.
With `COCCc1ccccc1` [(2-METHOXYETHYL)BENZENE] the “Log ODT” value was greater than −4.
With `CC/C=C\CCOC(C)=O` [(Z)-3-HEXENYL ACETATE] the “Log ODT” value was greater than −4.
In the case of `CC/C=C\CCOC(=O)C(C)C` [(Z)-3-HEXENYL ISOBUTYRATE], the “Log ODT” value is reported as greater than −4.
In the case of `CC1(C)CCC[C@]2(C)[C@H]3CCO[C@]3(C)CC[C@@H]12` [(−)-(3AR,5AS,9AS,9BR)-3A,6,6,9A-TETRAMETHYLDODECAHYDRONAPHTHO[2,1-B]FURAN], the “Log ODT” value is reported as less than −4.
In the case of `CCCCCCCCCC=O` [DECANAL], the “Log ODT” value is reported as greater than −4.
With `CCCCCCOC(=O)c1ccccc1O` [HEXYL 2-HYDROXYBENZOATE] the “Log ODT” value was greater than -4.
In the case of `CCCCCCOC(C)=O` [HEXYL ACETATE], the “Log ODT” value is reported as greater than −4.
With `CCCCCCCCCC(C)=O` [Microcapsules 2-UNDECANONE, 2-UNDECANONE] the “Log ODT” value was greater than −4.
With `CCCCCCCC=O` [OCTANAL] the “Log ODT” value was greater than −4.
With `O=C1CCCCCCCCCCCCCCO1` [OXACYCLOHEXADECAN-2-ONE] the “Log ODT” value was greater than −4.
In the case of “(1RS,2RS)-2,4-DIMETHYL-3-CYCLOHEXENE-1-CARBALDEHYDE (A) + (1RS,2SR)-2,4-DIMETHYL-3-CYCLOHEXENE-1-CARBALDEHYDE (B)”, the “Log ODT” value is reported as greater than −4.
In the case of “(2RS,4SR)-4-METHYL-2-(2-METHYL-1-PROPEN-1-YL)TETRAHYDRO-2H-PYRAN (A) + (2RS,4RS)-4-METHYL-2-(2-METHYL-1-PROPEN-1-YL)TETRAHYDRO-2H-PYRAN (B)”, the “Log ODT” value is reported as greater than −4.
With “(2Z)-1,1-DIETHOXY-3,7-DIMETHYL-2,6-OCTADIENE (A) + (2E)-1,1-DIETHOXY-3,7-DIMETHYL-2,6-OCTADIENE (B)” the “Log ODT” value was greater than −4.
In the case of “(2Z)-2-TRIDECENENITRILE (A) + (3Z)-3-TRIDECENENITRILE (B) + (3E)-3-TRIDECENENITRILE (C) + (2E)-2-TRIDECENENITRILE (D)”, the “Log ODT” value is reported as less than −4.
In the case of “(+)-(3S)-3-[(1R)-4-METHYL-3-CYCLOHEXEN-1-YL]BUTANAL (A) + (+)-(3R)-3-[(1R)-4-METHYL-3-CYCLOHEXEN-1-YL]BUTANAL”, the “Log ODT” value is reported as greater than −4.
With “(+−)-4-METHYLENE-2-PHENYLTETRAHYDRO-2H-PYRAN (A) + (+−)-4-METHYL-6-PHENYL-3,6-DIHYDRO-2H-PYRAN (B) + (+−)-4-METHYL-2-PHENYL-3,6-DIHYDRO-2H-PYRAN (C)” the “Log ODT” value was less than −4.
With “(+−)-(3E)-3-METHYL-4-(2,6,6-TRIMETHYL-2-CYCLOHEXEN-1-YL)-3-BUTEN-2-ONE (A) + (+−)-(1E)-1-(2,6,6-TRIMETHYL-2-CYCLOHEXEN-1-YL)-1-PENTEN-3-ONE (B)” the “Log ODT” value was less than −4.
For “.ALPHA.-DIHYDROTERPINEOL (A) + .BETA.-DIHYDROTERPINEOL (B)”, the “Log ODT” value was greater than −4.
For “TRICYCLO[5.2.1.0~2,6~]DEC-3-EN-8-YL ACETATE (A) + TRICYCLO[5.2.1.0~2,6~]DEC-4-EN-8-YL ACETATE (B)”, the “Log ODT” value was greater than −4.
